The values that follow come from US9782395B2, “2,4-thiazolidinedione derivatives in the treatment of central nervous system disorders” (MINORYX THERAPEUTICS S.L., priority 2014, dated 2017).

The nature of data set [1]: Pharmacokinetic profile and brain distribution after single oral and intravenous dose. It counts as in vivo, male C57 BL/6 mice. As for the experimental part: Protocol: Pharmacokinetic parameters and brain distribution of 5-(4-(2-(5-(1-hydroxyethyl)pyridine-2-yl)ethoxy)benzyl)thiazolidine-2,4-dione (racemate or stereoisomers) following single oral (4.5 mg/kg) and intravenous (1 mg/kg) dose administration to male C57 BL/6 mice were determined. Blood samples and brain samples were collected pre-dosing and different times post dosing for both oral and i.v pharmacokinetics. All samples were processed for analysis by protein precipitation using acetonitrile and analyzed with fit-for-purpose LC/MS/MS method. The lower limit of quantification (LLOQ) in plasma and brain for 5-(4-(2-(5-(1-hydroxyethyl)pyridine-2-yl)ethoxy)benzyl)thiazolidine-2,4-dione (1) is 0.99 ng/mL. Pharmacokinetic parameters were calculated using the non-compartmental analysis tool of Phoenix WinNonlin.

The nature of data set [2]: Brain plasma ratio at Cmax after single oral dose of Pioglitazone. It counts as in vivo, male C57BL/6 mice. The following applies: male, C57BL/6, mouse, single oral Pioglitazone 4.5 mg/kg, parent and metabolites quantified, read-out: percentage brain plasma ratio. As for the experimental part:
The brain plasma ratios of Pioglitazone, MIV, MIII and MII following oral dosing of a single administration of Pioglitazone at 4.5 mg/kg in male C57BL/6 mice.
The brain-plasma ratio was calculated based on levels of Pioglitazone, MIV, MIII and MII in plasma and brain quantified at C max (maximal concentration) following oral dosing of a single administration of Pioglitazone at 4.5 mg/kg in male C57BL/6 mice.

A short description of data set [3]: Brain plasma ratio from AUC of plasma and brain profiles after single oral dose of Pioglitazone or MIV. The conditions noted are these: male, C57BL/6, mouse, single oral 4.5 mg/kg of the compound itself, read-out: percentage brain-plasma ratio. The data set is classed as in vivo, male C57BL/6 mice. As for the experimental part: The brain plasma ratios of Pioglitazone and MIV and following oral dosing of a single administration of either Pioglitazone or M-IV both at 4.5 mg/kg in male C57BL/6 mice. […] The brain-plasma ratio was calculated based on the pharmacokinetics curves of plasma and brain concentration-time profiles calculated as area under the curves of Pioglitazone and following oral dosing of a single administration of either Pioglitazone or MIV both at 4.5 mg/kg in male C57BL/6 mice.

For data set [4], the system named is primary rat cortical neurons injured by glutamate. Description: Primary cortical neurons injured by glutamate, survival by MTT. It counts as cell-based. As for the experimental part: Protocol: Rat cortical neurons were cultured as described by Singer (J Neurosci. 1999 Apr. 1; 19(7):2455-63) and Callizot (J Neurosci Res. 2013 May; 91(5):706-16).
Foetuses were collected and immediately placed in ice-cold Leibovitz medium. Cortex was treated with a trypsin-EDTA solution and the dissociation was stopped by addition of Dulbecco's modified Eagle's medium (DMEM) with glucose (Pan Biotech), containing DNAse I and 10% fetal calf serum (FCS). Cells were mechanically dissociated and centrifuged. The pellet was resuspended in a defined culture medium with 10 ng/ml of brain-derived neurotrophic factor (BDNF). The cells were seeded in 96-well plates precoated with poly-L-lysine and were cultured at 37°. The medium was changed every 2 days. The cortical neurons were intoxicated with glutamate after 13 days of culture.
Briefly, on day 13 of culture, BDNF and test compound were pre-incubated with primary cortical neurons for 1 hour before glutamate exposure. Glutamate was added to a final concentration of 40 μM diluted in control medium in presence of BDNF or test compound for 20 min.
After 20 min, glutamate was washed out and fresh culture medium with BDNF or test compound was added for additional 48 hours. The survival evaluation was done by a MTT assay performed with CellTiter 96® Aqueous One Solution Cell Proliferation Assay (Promega).

For data set [5], the target named is T1, Human recombinant monoamine oxidase MAO-B (Homo sapiens, UniProt P27338).
T1 construct: purchased Sigma Aldrich M7441
T1 sequence (P27338 1-520): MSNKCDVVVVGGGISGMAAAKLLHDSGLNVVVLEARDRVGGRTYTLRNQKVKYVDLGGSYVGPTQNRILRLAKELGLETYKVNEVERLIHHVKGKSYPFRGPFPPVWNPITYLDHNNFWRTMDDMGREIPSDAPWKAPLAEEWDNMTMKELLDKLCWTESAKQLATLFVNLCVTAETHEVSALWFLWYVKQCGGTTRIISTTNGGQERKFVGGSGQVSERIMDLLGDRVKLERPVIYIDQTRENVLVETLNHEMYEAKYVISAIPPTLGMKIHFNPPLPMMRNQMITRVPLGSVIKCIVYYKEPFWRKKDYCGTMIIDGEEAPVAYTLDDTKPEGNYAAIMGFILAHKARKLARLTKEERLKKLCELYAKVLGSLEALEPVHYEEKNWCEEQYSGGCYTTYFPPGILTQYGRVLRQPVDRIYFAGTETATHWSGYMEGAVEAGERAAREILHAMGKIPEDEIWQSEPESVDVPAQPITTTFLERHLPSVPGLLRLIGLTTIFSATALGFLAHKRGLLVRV
Nature of the data set: MAO-B inhibition, kynuramine fluorescence assay. It counts as biochemical. The text has this:
(§1) Protocol: Human recombinant monoamine oxidase proteins MAO-A and MAO-B were purchased from Sigma Aldrich (Reference M7316 and M7441 respectively). In order to monitor the MAO enzymatic activities and their inhibition rate a fluorescence based assay was used. The substrate for the assay, kynuramine, is non-fluorescent until undergoing oxidative deamination by MAOs resulting in the fluorescent product 4-hydroxyquinoline. Kynuramine is a substrate for both MAO-A and -B (non-specific substrate). Clorgiline and Deprenyl (Sigma Aldrich) were used as controls for specific inhibition of MAO-A and MAO-B respectively.

For data set [6], the target named is T2, Human recombinant monoamine oxidase MAO-A (Homo sapiens, UniProt P21397).
T2 construct: purchased Sigma Aldrich M7316
T2 sequence (P21397 1-527): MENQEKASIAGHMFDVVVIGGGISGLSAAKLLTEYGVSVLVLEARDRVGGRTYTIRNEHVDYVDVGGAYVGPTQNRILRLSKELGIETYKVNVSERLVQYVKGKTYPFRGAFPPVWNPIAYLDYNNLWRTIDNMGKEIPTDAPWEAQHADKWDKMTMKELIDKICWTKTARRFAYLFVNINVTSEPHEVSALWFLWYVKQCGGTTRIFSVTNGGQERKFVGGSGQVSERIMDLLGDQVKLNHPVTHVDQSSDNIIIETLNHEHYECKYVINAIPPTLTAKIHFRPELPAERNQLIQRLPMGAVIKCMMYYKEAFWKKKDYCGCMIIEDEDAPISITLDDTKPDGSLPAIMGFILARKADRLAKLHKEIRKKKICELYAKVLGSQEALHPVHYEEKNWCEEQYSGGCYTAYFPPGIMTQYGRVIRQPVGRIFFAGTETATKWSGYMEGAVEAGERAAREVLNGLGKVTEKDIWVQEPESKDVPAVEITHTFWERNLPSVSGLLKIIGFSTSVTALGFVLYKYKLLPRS
Description: MAO-A inhibition, kynuramine fluorescence assay. It counts as biochemical.
Excerpt: as §1

The subject of data set [7] is X-linked adrenoleukodystrophy fibroblasts. Description: X-ALD patient fibroblasts, cell survival (MTT). It counts as cell-based, human. The following applies: at 3, M, vs non-treated, 24 hours. As for the experimental part:
Human control and X-linked adrenoleukodystrophy fibroblasts were obtained from Coriell (Candem, USA). Cells were grown in Dulbecco's modified Eagle medium containing 10% foetal bovine serum, 100 U/ml penicillin and […], at 37° C. in humidified 95% air/5% CO2, to 80-90% confluence. To perform our experiments, Dulbecco's modified Eagle medium without D-glucose, pyruvate or L-glutamine was used. Cells were cultured in this medium supplemented with 1 g/l of glucose or 1 g/l of galactose and 10% foetal bovine serum for 24 hours incubated with increasing doses of MIV (3, 10 and 30 μM).
The determination of MTT was performed as described by Mosmann J. Immunol. Methods 1983, 65, 55-63 and by Hansen J. Immunol. Methods 1989; 119, 203-210. This method is based on the ability of viable but not dead cells to convert the tetrazolium salt (MTT) to colored formazan.
For the determination of ATP levels, 2×10^4 cells/well were seeded in 96 well cell culture plate in complete medium. After 16-18 h cells, were lysed in 20 μl lysis buffer and 10 μl of lysate was used to measure ATP levels using ATP determination Kit (Molecular Probes, Invitrogen). 1 μl each of the remaining lysate was used for protein measurement.

In data set [8] the test system is Rat spinal cord (SC) motor neurons injured by glutamate. Description: Spinal cord motor neurons injured by glutamate, survival by MAP-2 immunostaining. It counts as cell-based. The conditions noted are these: 1 μM, glutamate 10 μM 20 min, 48 hours, p<0.05. As for the experimental part: Protocol: Rat spinal cord (SC) motor neurons were cultured as described by Martinou (Neuron. 1992 April; 8(4):737-44) and Wang (PLoS Genet. 2013; 9(9)). Briefly, pregnant female rats of 14 days gestation were killed by cervical dislocation and foetuses were collected and immediately placed in ice-cold L15 Leibovitz medium. Spinal cord was treated for 20 min at 37° C. with a trypsin-EDTA. The dissociation was stopped by addition of Dulbecco's modified Eagle's medium (DMEM) with glucose (Pan Biotech), containing DNAse I and 10% fetal calf serum (FCS). Cells were mechanically dissociated and they were then centrifuged. The pellet was resuspended in a defined culture medium with 10 ng/ml of brain-derived neurotrophic factor (BDNF). The cells were seeded in 96-well plates precoated with poly-L-lysine and were cultured at 37°. The medium was changed every 2 days.
Briefly, on day 13 of culture, BDNF or test compound was pre-incubated with primary Spinal cord (SC) motor neurons for 1 hour before glutamate exposure. Glutamate was added to a final concentration of 10 μM diluted in control medium in presence of BDNF or test compound for 20 min. […]
For each condition 6 wells were assessed, 30 pictures per well were taken using ImageXpress (Molecular Device) with 20× magnification. […]

For data set [9], the system named is experimental autoimmune encephalomyelitis (EAE).
For data set [10] the following is noted: diabetic preclinical models; cited from earlier work.

Read-outs that look alike come from different tables or passages of the source.

In the case of `CC(O)c1ccc(CCOc2ccc(CC3SC(=O)NC3=O)cc2)nc1` (racemic) [compound (1), 5-[4-[2-(5-(1-hydroxyethyl)-2-pyridinyl)ethoxy]benzyl]-2,4-thiazolidinedione], in data set [1] (both intravenous and oral profiles), the “brain concentrations observed until” value is 8 h. For the same molecule, the Kp in data set [1] (male, mouse, brain and plasma, C57BL/6 mice, single oral 4.5 mg/kg / i.v. 1 mg/kg, read-out: brain-to-plasma exposure (AUClast) ratio) stood at 0.12; in data set [2] (brain and plasma), 0.13; in data set [3], 0.12. This molecule also yielded a bioavailability in data set [1] (male, mouse, plasma, oral 4.5 mg/kg vs i.v. 1 mg/kg, C57BL/6 mice) of 85%. Moreover, in data set [1] (male, mouse, plasma, single intravenous 1 mg/kg, C57BL/6 mice, read-out: systemic plasma clearance), the clearance was 11.8 mL/min/kg. For the same molecule, in data set [1] (male, mouse, plasma, single intravenous 1 mg/kg, C57BL/6 mice, read-out: terminal elimination plasma half-life (converted)), the half-life is 107 min. The Tmax was found to be 30 min in data set [1] (male, mouse, plasma, single oral 4.5 mg/kg, C57BL/6 mice, read-out: Tmax in plasma) and 30 min in data set [1] (male, mouse, C57BL/6 mice, brain, read-out: Tmax in brain). The “plasma concentrations observed until” value in [1] (single oral 4.5 mg/kg, 1 animal) is 24 h. Moreover, the “protective effect on glutamate injury (survival, MTT)” value in data set [4] (3 μM, glutamate 40 μM 20 min, 48 hours) is reported as “full protective effect”. Besides, the IC50 in data set [5] is 70.5 nM. Moreover, the “inhibition of MAO A protein” value in data set [6] is listed as “did not inhibit”. Further, the “increase in cell survival” value in data set [7] stood at 20%. The “effect on cell survival vs the control with glutamate” value in data set [8] is reported as “protective effect”. In [9] (bid from day 5 post immunization for 15 days, three increasing doses), the “development and severity of EAE (clinical scores)” value was “reduces the development and severity”. Moreover, the “body weight loss associated to treatment” value in data set [9] (mouse, in vivo) is on record as “No body weight loss”. In addition, the “hematological toxicity associated to treatment” value in data set [9] (mouse, in vivo) is reported as “no significant hematological toxicity”.
In the case of `CCc1ccc(C(O)COc2ccc(CC3SC(=O)NC3=O)cc2)nc1` (stereo not shown) [MII], in data set [2] (in vivo), the Kp came to 0.01. Further, in data set [10], the “pharmacological activity relative to Pioglitazone” value is listed as “less active than Pioglitazone”.
Consider `CCc1ccc(CCOc2ccc(CC3SC(=O)NC3=O)cc2)nc1` (stereo not shown) [Pioglitazone, reference compound], for which the Kp in [2] (brain and plasma) turned out to be 0.09; in data set [3], 0.08.
In the case of `CC(=O)c1ccc(CCOc2ccc(CC3SC(=O)NC3=O)cc2)nc1` (stereo not shown) [MIII, 5-(4-(2-(5-acetyl-2-pyridyl)ethoxy)benzyl)-2,4-thiazolidinedione], the Kp in data set [2] (brain and plasma) is 0.07. Further, in data set [10], the “pharmacological activity relative to Pioglitazone” value is “less active than Pioglitazone”.

B1: BDNF: brain-derived neurotrophic factor, reference compound (protein, UniProt P23560 19-247, looked up)
Neurotrophic factor BDNF …: APMKEANIRGQGGLAYPGVRTHGTLESVNGPKAGSRGLTSLADTFEHVIEELLDEDQKVRPNEENNKDADLYTSRVMLSSQVPLEPPLLFLLEEYKNYLDAANMSMRVRRHSDPARRGELSVCDSISEWVTAADKKTAVDMSGGTVTVLEKVPVSKGQLKQYFYETKCNPMGYTKEGCRGIDKRHWNSQCRTTQSYVRALTMDSKKRIGWRFIRIDTSCVCTLTIKRGR
As to B1, the “protective effect on glutamate injury (survival, MTT)” value in [4] (50 ng/ml, reference compound) is “full protective effect”.

As usually defined, the bioavailability is dose-corrected exposure relative to a reference, in per cent. A high value points to much systemic uptake. As a reminder, the half-life is the time in which the quantity being followed falls by half. As usually defined, the Tmax is the time at which the peak concentration occurs. One may read the IC50 as the concentration that inhibits the measured activity by half.
